Patent US10219516B2, “Molecules having pesticidal utility, and intermediates, compositions, and processes, related thereto” (priority 2015, dated 2019)

How the values were obtained:
Assay type in all cases: in vivo
[1] = test system: Beet Armyworm (Spodoptera exigua, LAPHEG); test: Bioassay on Beet Armyworm (BAW), 128-well diet tray assay; conditions: Species BAW (Beet Armyworm), read-out: BAW (Biological Results, rating)
Procedure, shortened: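 Percent mortality, averaged across eight replicate wells, was scored after five to seven days at 25° C. under a 14:10 light-dark cycle. Each well's diet carried 50 μg/cm^2 of the dried test molecule and held one to five second instar larvae.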

[2] = test system: Cabbage Looper (Trichoplusia ni, TRIPNI); test: Bioassay on Cabbage Looper (CL), 128-well diet tray assay; conditions: Trichoplusia ni; Species CL (Cabbage Looper); read-out: CL (Biological Results, rating)
Procedure, shortened: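 Using eight wells per molecule, artificial diet was dosed at 50 μg/cm^2 with compound in 90:10 acetone-water and dried before one to five second-instar larvae were added per well. Covered vented trays were kept at 25° C. with 14:10 light-dark for five to seven days, then per-well percent mortality was recorded and averaged.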

[3] = test system: Yellow Fever Mosquito (Aedes aegypti, AEDSAE); test: Bioassay on Yellow Fever Mosquito (YFM), 96-well plate larval assay; conditions: Species YFM (Yellow Fever Mosquito)
Procedure, shortened: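 Compound stocks at 4000 ppm in DMSO were diluted with 90:10 water/acetone, and 15 μL aliquots were dispensed into six replicate plates. About 1-day-old larvae in liver-powder water were added per well. Plates were covered and held at room temperature for 3 days before each well was scored for mortality.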

| Compound | pest or weed control at 50 µg/cm2 [1] [%] | pest or weed control at 50 µg/cm2 [2] [%] | YFM (Biological Results, rating) [3] |
| --- | --- | --- | --- |
| CN(C(=O)c1cccc(NC(=O)[C@H]2[C@H](c3cc(Cl)cc(Cl)c3)C2(Cl)Cl)c1)c1ccc(F)cc1 (relative stereo) [F273, trans-3-(2,2-Dichloro-3-(3,5-dichlorophenyl)cyclopropane-1-carboxamido)-N-(4-fluorophenyl)-N-methylbenzamide] | 50 to 100 | 50 to 100 | A (80-100) |
| O=C(Nc1ccc(F)cc1Cl)c1cccc(NC(=O)[C@H]2[C@H](c3cc(Cl)cc(Cl)c3)C2(Cl)Cl)c1 (relative stereo) [F274, trans-N-(2-Chloro-4-fluorophenyl)-3-(2,2-dichloro-3-(3,5-dichlorophenyl)cyclopropane-1-carboxamido)benzamide] | 50 to 100 | 50 to 100 | A (80-100) |
| N#Cc1ccc(NC(=O)c2cc(NC(=O)[C@H]3[C@H](c4cc(Cl)cc(Cl)c4)C3(Cl)Cl)ccc2Cl)c(C#N)c1 (relative stereo) [F287, trans-2-Chloro-5-(2,2-dichloro-3-(3,5-dichlorophenyl)cyclopropane-1-carboxamido)-N-(2,4-dicyanophenyl)benzamide] | 50 to 100 | 50 to 100 | A (80-100) |
| COC(=O)CNc1ccc(NC(=O)c2cc(NC(=O)[C@H]3[C@H](c4cc(Cl)cc(Cl)c4)C3(Cl)Cl)ccc2Cl)c(C)c1 (relative stereo) [F288, trans-methyl (4-(2-chloro-5-(2,2-dichloro-3-(3,5-dichlorophenyl)cyclopropane-1-carboxamido)benzamido)-3-methylphenyl)glycinate] | 50 to 100 | 50 to 100 | A (80-100) |
| C=Cc1ccc([C@H]2[C@H](C(=O)Nc3ccc(Cl)c(C(=O)Nc4ccc(F)cc4)c3)C2(Cl)Cl)cc1Cl (relative stereo) [F289, 2-chloro-5-(trans-2,2-dichloro-3-(3-chloro-4-vinylphenyl)cyclopropane-1-carboxamido)-N-(4-fluorophenyl)benzamide] | 50 to 100 | 50 to 100 | A (80-100) |
| O=C(Nc1ccc([N+](=O)[O-])cn1)c1cc(NC(=O)[C@H]2[C@H](c3cc(Cl)cc(Cl)c3)C2(Cl)Cl)ccc1Cl (relative stereo) [F293, 2-Chloro-5-(trans-2,2-dichloro-3-(3,5-dichlorophenyl)cyclopropane-1-carboxamido)-N-(5-nitropyridin-2-yl)benzamide] | 50 to 100 | 50 to 100 | A (80-100) |
| O=C(Nc1ncccn1)c1cc(NC(=O)[C@H]2[C@H](c3cc(Cl)cc(Cl)c3)C2(Cl)Cl)ccc1Cl (relative stereo) [F294, trans-2-Chloro-5-(2,2-dichloro-3-(3,5-dichlorophenyl)cyclopropane-1-carboxamido)-N-(pyrimidin-2-yl)benzamide] | 50 to 100 | 50 to 100 | A (80-100) |
| O=C(Nc1cncnc1)c1cc(NC(=O)[C@H]2[C@H](c3cc(Cl)cc(Cl)c3)C2(Cl)Cl)ccc1Cl (relative stereo) [F295, trans-2-Chloro-5-(2,2-dichloro-3-(3,5-dichlorophenyl)cyclopropane-1-carboxamido)-N-(pyrimidin-5-yl)benzamide] | 50 to 100 | 50 to 100 | A (80-100) |
| O=C(Nc1ccncn1)c1cc(NC(=O)[C@H]2[C@H](c3cc(Cl)cc(Cl)c3)C2(Cl)Cl)ccc1Cl (relative stereo) [F296, trans-2-Chloro-5-(2,2-dichloro-3-(3,5-dichlorophenyl)cyclopropane-1-carboxamido)-N-(pyrimidin-4-yl)benzamide] | 50 to 100 | 50 to 100 | A (80-100) |
| Cc1cc(NC(=O)c2cc(NC(=O)[C@H]3[C@H](c4cc(Cl)cc(Cl)c4)C3(Cl)Cl)ccc2Cl)ncc1F (relative stereo) [F297, trans-2-Chloro-5-(2,2-dichloro-3-(3,5-dichlorophenyl)cyclopropane-1-carboxamido)-N-(5-fluoro-4-methylpyridin-2-yl)benzamide] | 50 to 100 | 50 to 100 | A (80-100) |
| N#Cc1c(F)cccc1NC(=O)c1cc(NC(=O)[C@H]2[C@H](c3cc(Cl)cc(Cl)c3)C2(Cl)Cl)ccc1Cl (relative stereo) [F298, 2-Chloro-N-(2-cyano-3-fluorophenyl)-5-(trans-2,2-dichloro-3-(3,5-dichlorophenyl)cyclopropane-1-carboxamido)benzamide] | 50 to 100 | 50 to 100 | A (80-100) |
| N#Cc1cccc(F)c1NC(=O)c1cc(NC(=O)[C@H]2[C@H](c3cc(Cl)cc(Cl)c3)C2(Cl)Cl)ccc1Cl (relative stereo) [F299, 2-Chloro-N-(2-cyano-6-fluorophenyl)-5-(trans-2,2-dichloro-3-(3,5-dichlorophenyl)cyclopropane-1-carboxamido)benzamide] | 50 to 100 | 50 to 100 | A (80-100) |
| Cc1cc(F)c(NC(=O)c2cc(NC(=O)[C@H]3[C@H](c4cc(Cl)cc(Cl)c4)C3(Cl)Cl)ccc2Cl)c(C#N)c1 (relative stereo) [F300, 2-Chloro-N-(2-cyano-6-fluoro-4-methylphenyl)-5-(trans-2,2-dichloro-3-(3,5-dichlorophenyl)cyclopropane-1-carboxamido)benzamide] | 50 to 100 | 50 to 100 | A (80-100) |
| N#Cc1cc(Cl)ccc1NC(=O)c1cc(NC(=O)[C@H]2[C@H](c3cc(Cl)cc(Cl)c3)C2(Cl)Cl)ccc1Cl (relative stereo) [F301, 2-Chloro-N-(4-chloro-2-cyanophenyl)-5-(trans-2,2-dichloro-3-(3,5-dichlorophenyl)cyclopropane-1-carboxamido)benzamide] | 50 to 100 | 50 to 100 | A (80-100) |
| N#Cc1c(Cl)cccc1NC(=O)c1cc(NC(=O)[C@H]2[C@H](c3cc(Cl)cc(Cl)c3)C2(Cl)Cl)ccc1Cl (relative stereo) [F302, 2-Chloro-N-(3-chloro-2-cyanophenyl)-5-(trans-2,2-dichloro-3-(3,5-dichlorophenyl)cyclopropane-1-carboxamido)benzamide] | 50 to 100 | 50 to 100 | A (80-100) |
| N#Cc1ccc(Br)cc1NC(=O)c1cc(NC(=O)[C@H]2[C@H](c3cc(Cl)cc(Cl)c3)C2(Cl)Cl)ccc1Cl (relative stereo) [F303, N-(5-Bromo-2-cyanophenyl)-2-chloro-5-(trans-2,2-dichloro-3-(3,5-dichlorophenyl)cyclopropane-1-carboxamido)benzamide] | 50 to 100 | 50 to 100 | A (80-100) |
| Cc1cccc(NC(=O)c2cc(NC(=O)[C@H]3[C@H](c4cc(Cl)cc(Cl)c4)C3(Cl)Cl)ccc2Cl)c1C#N (relative stereo) [F304, 2-Chloro-N-(2-cyano-3-methylphenyl)-5-(trans-2,2-dichloro-3-(3,5-dichlorophenyl)cyclopropane-1-carboxamido)benzamide] | 50 to 100 | 50 to 100 | A (80-100) |
| Nc1ccc(NC(=O)c2cc(NC(=O)[C@H]3[C@H](c4cc(Cl)cc(Cl)c4)C3(Cl)Cl)ccc2Cl)nc1 (relative stereo) [F305, N-(5-Aminopyridin-2-yl)-2-chloro-5-(trans-2,2-dichloro-3-(3,5-dichlorophenyl)cyclopropane-1-carboxamido)benzamide] | 50 to 100 | 50 to 100 | A (80-100) |
| O=C(Nc1ccc(F)cc1F)c1cc(NC(=O)[C@H]2[C@H](c3ccc(Br)c(Cl)c3)C2(Cl)Cl)ccc1Cl (relative stereo) [F306, 5-(trans-3-(4-Bromo-3-chlorophenyl)-2,2-dichlorocyclopropane-1-carboxamido)-2-chloro-N-(2,4-difluorophenyl)benzamide] | 50 to 100 | 50 to 100 | A (80-100) |
| CN(C(=O)c1cc(NC(=O)[C@H]2[C@H](c3ccc(Br)c(Cl)c3)C2(Cl)Cl)ccc1Cl)c1ccc(F)cc1 (relative stereo) [F307, 5-(trans-3-(4-Bromo-3-chlorophenyl)-2,2-dichlorocyclopropane-1-carboxamido)-2-chloro-N-(4-fluorophenyl)-N-methylbenzamide] | 50 to 100 | 50 to 100 | A (80-100) |
| N#Cc1cc(F)ccc1NC(=O)c1cc(NC(=O)[C@H]2[C@H](c3cc(C(F)(F)F)cc(C(F)(F)F)c3)C2(Cl)Cl)ccc1Cl (relative stereo) [F308, trans-5-(3-(3,5-bis(Trifluoromethyl)phenyl)-2,2-dichlorocyclopropane-1-carboxamido)-2-chloro-N-(2-cyano-4-fluorophenyl)benzamide] | 50 to 100 | 50 to 100 | A (80-100) |
